# From US20260078158A1, “COMPOSITIONS COMPRISING CXCL10-DERIVED PEPTIDES AND METHODS OF USE THEREOF” (priority 2022, published 2026)
# Like-named read-outs stand apart in the source and are kept apart here. Where a SMILES comes first, the peptide text is derived from it. [ ]: non-standard residue; d: D form.
# How the values were obtained:
# [1] = test system: Enterococcus faecalis; assay: microbe, parasite or virus in culture; type: cell-based; conditions: for MIC50 fold change: Enterococcus faecalis (2 isolates)
# [2] = test system: Enterococcus faecium; assay: microbe, parasite or virus in culture; type: cell-based; conditions: for MIC50 fold change: Enterococcus faecium (3 isolates)
# [3] = test system: Acinetobacter baumannii-calcoaceticus complex; assay: microbe, parasite or virus in culture; type: cell-based; conditions: for MIC50 fold change: Acinetobacter spp. (5 isolates)
# [4] = test system: Escherichia coli; assay: microbe, parasite or virus in culture; type: cell-based; conditions: for MIC50 fold change: Escherichia coli (5 isolates)
# [5] = test system: E. cloacae species complex; assay: microbe, parasite or virus in culture; type: cell-based, Enterobacter cloacae; conditions: for MIC: Enterobacter cloacae, read-out: MIC; for MIC50 fold change: Enterobacter spp. (5 isolates)
# [6] = test system: Pseudomonas aeruginosa; assay: microbe, parasite or virus in culture; type: cell-based; conditions: for MIC50 fold change: Pseudomonas aeruginosa (5 isolates)
# [7] = test system: Streptococcus pneumoniae; assay: microbe, parasite or virus in culture; type: cell-based
# [8] = test system: Staphylococcus aureus; assay: microbe, parasite or virus in culture; type: cell-based
# [9] = test system: Klebsiella pneumoniae; assay: microbe, parasite or virus in culture
# [10] = test system: Klebsiella pneumoniae; conditions: for MIC50 fold change: Klebsiella pneumoniae (5 isolates)
compound,measurement,setting,value
"C[C@H]1COc2c(N3CCN(C)CC3)c(F)cc3c(=O)c(C(=O)O)cn1c23 [Levofloxacin, reference compound]",MIC,"[1]; ATCC29212, Enterococcus faecalis ATCC 29212, QC, read-out: MIC",0.5 mg/L
same,MIC,"[1]; Enterococcus faecalis, Collection No. 1204777, VRE, read-out: MIC",32 mg/L
same,MIC,"[1]; Enterococcus faecalis, Collection No. 1211589, VRE",32 mg/L
same,MIC,"[2]; Enterococcus faecium, Collection No. 1196024, VRE, read-out: MIC",> 64 mg/L
same,MIC,"[2]; Enterococcus faecium, Collection No. 1208412, VRE",>64 mg/L
same,MIC,"[2]; Enterococcus faecium, Collection No. 1222807, VSE, read-out: MIC",8 mg/L
same,MIC,"[3]; Acinetobacter, ABC species complex, Collection No. 1204424, non-MDR, read-out: MIC",0.12 mg/L
same,MIC,"[3]; Acinetobacter, ABC species complex, Collection No. 1208060, non-MDR, read-out: MIC",0.06 mg/L
same,MIC,"[3]; Acinetobacter, ABC species complex, Collection No. 1215088, MDR, read-out: MIC",32 mg/L
same,MIC,"[3]; Acinetobacter, ABC species complex, Collection No. 1215098, MDR, read-out: MIC",16 mg/L
same,MIC,"[3]; Acinetobacter, ABC species complex, Collection No. 1216520, non-MDR, read-out: MIC",0.25 mg/L
same,MIC,"[4]; Escherichia coli, ATCC25922, Escherichia coli ATCC 25922, QC, read-out: MIC",0.015 mg/L
same,MIC,"[4]; Escherichia coli, ATCCBAA2452, Escherichia coli ATCC BAA-2452, NDM-1, read-out: MIC",0.03 mg/L
same,MIC,"[4]; Escherichia coli, Collection No. 1191008, MDR, ESBL, read-out: MIC",32 mg/L
same,MIC,"[4]; Escherichia coli, Collection No. 1231795, MDR, ESBL, read-out: MIC",8 mg/L
same,MIC,"[4]; Escherichia coli, Collection No. 1232428, MDR (COL-R), ESBL, read-out: MIC",8 mg/L
same,MIC,"[4]; Escherichia coli, Collection No. 1248389, ESBL, read-out: MIC",8 mg/L
same,MIC,"[5]; B. cloacae species complex, Collection No. 1204419, non-MDR",0.03 mg/L
same,MIC,"[5]; Collection No. 1230117, non-MDR",0.015 mg/L
same,MIC,"[5]; E. cloacae species complex, Collection No. 1197959, non-MDR",0.25 mg/L
same,MIC,"[5]; E. cloacae species complex, Collection No. 1230601, non-MDR",0.03 mg/L
same,MIC,"[5]; E. cloacae species complex, Collection No. 1232701, MDR",8 mg/L
same,MIC,"[6]; Pseudomonas aeruginosa ATCC 27853, QC",0.5 mg/L
same,MIC,"[6]; Pseudomonas aeruginosa, ATCC27853, Pseudomonas aeruginosa ATCC 27853, QC, read-out: MIC",1 mg/L
same,MIC,"[6]; Pseudomonas aeruginosa, Collection No. 1190985, non-MDR, read-out: MIC",0.25 mg/L
same,MIC,"[6]; Pseudomonas aeruginosa, Collection No. 1202638, MDR, read-out: MIC",16 mg/L
same,MIC,"[6]; Pseudomonas aeruginosa, Collection No. 1210081, non-MDR, read-out: MIC",0.5 mg/L
same,MIC,"[6]; Pseudomonas aeruginosa, Collection No. 1242554, non-MDR, read-out: MIC",0.5 mg/L
same,MIC,"[6]; Pseudomonas aeruginosa, Collection No. 1263496, MDR, read-out: MIC",0.25 mg/L
same,MIC,"[7]; ATCC49619, Streptococcus pneumoniae ATCC 49619, QC, read-out: MIC",0.5 mg/L
same,MIC,"[7]; Streptococcus pneumoniae, Collection No. 1200385, PEN-S, read-out: MIC",1 mg/L
same,MIC,"[7]; Streptococcus pneumoniae, Collection No. 1219456, PEN-R",1 mg/L
same,MIC,"[7]; Streptococcus pneumoniae, Collection No. 1219876, PEN-R",1 mg/L
same,MIC,"[7]; Streptococcus pneumoniae, Collection No. 1223661, PEN-R",1 mg/L
same,MIC,"[7]; Streptococcus pneumoniae, Collection No. 1227224, PEN-S",1 mg/L
same,MIC,"[8]; Staphylococcus aureus, MRSA / USA300, Staphylococcus aureus, Collection No. 1124691, MRSA (USA300)/MDR, read-out: MIC",8 mg/L
same,MIC,"[8]; Staphylococcus aureus, MRSA, Staphylococcus aureus, Collection No. 1189667, MRSA/MDR, read-out: MIC",> 64 mg/L
same,MIC,"[8]; Staphylococcus aureus, MRSA, Staphylococcus aureus, Collection No. 1189809, MRSA/MDR, read-out: MIC",32 mg/L
same,MIC,"[8]; Staphylococcus aureus, MRSA, Staphylococcus aureus, Collection No. 1190388, MRSA, read-out: MIC",16 mg/L
same,MIC,"[8]; Staphylococcus aureus, MRSA, Staphylococcus aureus, Collection No. 1221979, MRSA, read-out: MIC",1 mg/L
same,MIC,"[9]; ATCC700603, Klebsiella pneumoniae ATCC 700603, ESBL",1 mg/L
same,MIC,"[9]; BAA1705, Klebsiella pneumoniae ATCC BAA 1705, KPC",64 mg/L
same,MIC,"[9]; Collection No. 1230887, non-MDR",0.06 mg/L
same,MIC,"[9]; Collection No. 1236064, non-MDR",0.03 mg/L
"CC[C@@H](C)[C@@H](NC(=O)[C@@H](CS)NC(=O)[C@@H](CCSC)NC(=O)[C@@H](CS)NC(=O)[C@@H](CCCNC(=N)N)NC(=O)[C@H](NC(=O)[C@H](NC(=O)[C@H](N)CCCNC(=N)N)[C@H](C)O)C(C)C)C(=O)O [P182 A, RTVRCMCI] (H-[dR][dT][dV][dR][dC][dM][dC][dI]-OH; N-terminus and C-terminus assumed)",MIC,[1],8 mg/L
same,MIC,[2],8 mg/L
same,MIC,[3]; -calcoaceticus complex,16 mg/L
same,MIC,[4],16 mg/L
same,MIC,[7],32 mg/L
"CC[C@@H](C)[C@@H](NC(=O)[C@@H](CS)NC(=O)[C@@H](CCSC)NC(=O)[C@@H](CS)NC(=O)[C@@H](CCCNC(=N)N)NC(=O)[C@H](NC(=O)[C@H](NC(=O)[C@H](N)CCCNC(=N)N)[C@H](C)O)C(C)C)C(=O)O [P182 F, RTVRCMCI] (H-[dR][dT][dV][dR][dC][dM][dC][dI]-OH; N-terminus and C-terminus assumed)",MIC,[1],8 mg/L
same,MIC,[2],8 mg/L
same,MIC,[3]; -calcoaceticus complex,16 mg/L
same,MIC,[7],32 mg/L
"CC[C@@H](C)[C@@H](NC(=O)[C@@H](CS)NC(=O)[C@@H](CCCNC(=N)N)NC(=O)[C@@H](CS)NC(=O)[C@@H](CCCNC(=N)N)NC(=O)[C@H](NC(=O)[C@@H](Cc1ccc(O)cc1)NC(=O)[C@H](N)CCCNC(=N)N)C(C)C)C(=O)O [P194 A, RYVRCRCI] (H-[dR][dY][dV][dR][dC][dR][dC][dI]-OH; N-terminus and C-terminus assumed)",MIC,[1],4 mg/L
same,MIC50,[1],2 mg/L
same,MIC,[2],2 mg/L
same,MIC50,[2],1 mg/L
same,MIC50,[3]; -calcoaceticus complex,4 mg/L
same,MIC50,[4],8 mg/L
same,MIC50,[5]; species complex,16 mg/L
same,MIC50,[6],32 mg/L
same,MIC50,[7],32 mg/L
same,MIC,[8],32 mg/L
same,MIC50,[8],32 mg/L
same,MIC50,[10],4 mg/L
"CC[C@@H](C)[C@@H](NC(=O)[C@@H](CS)NC(=O)[C@@H](CCCNC(=N)N)NC(=O)[C@@H](CS)NC(=O)[C@@H](CCCNC(=N)N)NC(=O)[C@H](NC(=O)[C@@H](Cc1ccc(O)cc1)NC(=O)[C@H](N)CCCNC(=N)N)C(C)C)C(=O)O [P194 F, RYVRCRCI] (H-[dR][dY][dV][dR][dC][dR][dC][dI]-OH; N-terminus and C-terminus assumed)",MIC,[1],8 mg/L
same,MIC,[2],4 mg/L
same,MIC,[7],32 mg/L
ATVRCTCI [Peptide D8-R1A],MIC50 fold change,[1]; relative to D8-acetate,2
same,MIC50 fold change,[2]; relative to D8-acetate,2
same,MIC50 fold change,[3]; relative to D8-acetate,4
same,MIC50 fold change,[4]; relative to D8-acetate,4
same,MIC50 fold change,[5]; relative to D8-acetate,2
same,MIC50 fold change,[6]; relative to D8-acetate,2
same,MIC50 fold change,[10]; relative to D8-acetate,4
AYVRCRCI [Peptide P194-R1A],MIC50 fold change,[1]; relative to P194-acetate,1
same,MIC50 fold change,[2]; relative to P194-acetate,2
same,MIC50 fold change,[3]; relative to P194-acetate,1
same,MIC50 fold change,[4]; relative to P194-acetate,0.5
same,MIC50 fold change,[5]; relative to P194-acetate,0.5
same,MIC50 fold change,[6]; relative to P194-acetate,1
same,MIC50 fold change,"[7]; relative to P194-acetate, Streptococcus pneumoniae (5 isolates)",1
same,MIC50 fold change,"[8]; relative to P194-acetate, Staphylococcus aureus (5 isolates)",0.5
same,MIC50 fold change,[10]; relative to P194-acetate,1
